Assays:
Peripheral CCK receptors = target: T1, Peripheral CCK receptors (Rattus norvegicus, UniProt P30551); experiment: Peripheral receptors: 3H CCK8 binding to rat pancreas homogenate; details: 3H CCK8, 25° C., 60 minutes, read-out: Peripheral CCK IC50: concentration necessary to inhibit the fixed specific radioactivity by 50%
T1 construct: The pancreases of 3 male rats weighing 150-200 g were removed and ground with a Polytron; from tissue; host or cells: rat pancreas membrane homogenate
T1 sequence (P30551 1-444): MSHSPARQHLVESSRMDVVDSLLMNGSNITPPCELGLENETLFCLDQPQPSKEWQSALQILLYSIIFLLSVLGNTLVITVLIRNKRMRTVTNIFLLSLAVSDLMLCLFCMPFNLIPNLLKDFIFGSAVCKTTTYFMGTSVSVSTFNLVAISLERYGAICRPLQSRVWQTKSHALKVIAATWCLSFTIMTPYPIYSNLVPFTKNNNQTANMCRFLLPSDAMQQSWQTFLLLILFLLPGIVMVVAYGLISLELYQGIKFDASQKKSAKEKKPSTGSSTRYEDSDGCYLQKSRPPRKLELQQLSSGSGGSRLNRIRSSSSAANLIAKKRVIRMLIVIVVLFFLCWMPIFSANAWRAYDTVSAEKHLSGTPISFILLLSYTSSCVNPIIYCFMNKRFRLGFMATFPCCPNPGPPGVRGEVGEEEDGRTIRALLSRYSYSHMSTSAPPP
Protocol: The pancreases of 3 male rats weighing 150-200 g were removed and ground with a Polytron (4 grindings, speed 3, with an interval of 10 seconds between grindings) and the homogenate was filtered over a gauze, then centrifuged at 30,000 g for 30 minutes. The residue obtained was taken up in 400 volumes (.perspectiveto.600 ml) of Tris 50 mM HCl buffer, pH 7.4, containing 2 g/liter of BSA, 0.1 mM of bacitracin, 5 mM of MgCl2 and 5 mM of dithiothreitol. 2 ml of homogenate aliquots were incubated at 25° C. for 60 minutes in the presence of […] 3H CCK8 and the product to be tested (10,000 micromoles for 1 dose or with a range of 7 doses) and cold CCK8 (10^-6 M) which was the reference product. After returning to 0° C., the aliquots were filtered with Whatman GF/B filters having been previously washed in a 0.05% solution of polyethyleneimine. The filtrate was washed with 3×5 ml of Tris HCl 50 mM buffer, pH 7.4. The results are expressed in IC50 : concentration necessary to inhibit the fixed specific radioactivity by 50%. (IC50 in nanomoles).

Central CCK receptors = target: T2, Central CCK receptors (Rattus norvegicus, UniProt P30553); experiment: Central receptors: 3H CCK8 binding to rat cortex homogenate; details: 0.5 nM 3H CCK8, 25° C., 30 minutes, read-out: Central CCK IC50: concentration necessary to inhibit the fixed specific radioactivity by 50%
T2 construct: The cortices of 20 male rats weighing 150 to 200 g were removed and were ground up with a Polytron; from tissue; host or cells: rat cerebral cortex membrane homogenate
T2 sequence (P30553 1-452): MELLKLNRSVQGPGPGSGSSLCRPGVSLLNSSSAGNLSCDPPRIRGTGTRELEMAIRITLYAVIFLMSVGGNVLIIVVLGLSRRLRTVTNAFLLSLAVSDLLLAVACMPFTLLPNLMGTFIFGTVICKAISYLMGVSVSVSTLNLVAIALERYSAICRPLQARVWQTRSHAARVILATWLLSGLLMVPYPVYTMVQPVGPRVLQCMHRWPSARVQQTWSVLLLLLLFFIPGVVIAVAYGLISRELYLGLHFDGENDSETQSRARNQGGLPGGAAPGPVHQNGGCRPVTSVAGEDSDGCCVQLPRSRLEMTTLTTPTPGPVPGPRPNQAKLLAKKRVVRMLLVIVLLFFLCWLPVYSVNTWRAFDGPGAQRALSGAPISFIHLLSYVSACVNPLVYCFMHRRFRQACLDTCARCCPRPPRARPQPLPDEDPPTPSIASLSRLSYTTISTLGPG
Protocol: The cortices of 20 male rats weighing 150 to 200 g were removed and were ground up with a Polytron in 0.32M sucrose. After centrifuging, the supernatant was collected and centrifuged. The residue was suspended in 120 ml of Hepes buffer, pH 7.4, (Hepes 10 mM, NaCl 130 mM, MgCl2, 6H2 O 5 mM, bacitracine 250 mg/liter, PMSF 1 mg/liter), and re-centrifuged. The residue was taken up in 120 ml of Hepes buffer pH 7.4, and recentrifuged at 30,000 g for 30 minutes. The residue was then taken up in 500 ml of Hepes buffer pH 7.4, which enabled 240 aliquots of 2 ml of homogenate to be obtained. The incubation was carried out at 25° C. for 30 minutes in the presence of 0.5 nM of 3H CCK8 and the product to be tested (10,000 micromoles for 1 dose, or with a range of 7 doses) or cold CCK8 (10^-6 M), which was the reference product. After the homogenate aliquots were returned to 0° C., they were filtered with Whatman GF/B filters and the filtrates were washed with 3×5 ml of a Tris HCl 50 mM buffer, pH 7.4. The results are expressed in IC50 : concentration necessary to inhibit the fixed specific radioactivity by 50% in the Table below.

[1] = tested on: alimentary intake of a rat; experiment: Action on the alimentary intake of a rat; type: in vivo; details: 10 mg/kg intra-peritoneally, consumption monitored every hour for 5 hours
Protocol: The tests were carried out on groups of 5 rats weighing 250±10 g under the following conditions: the animals were placed individually in cages having a feeding trough described by FREGLY (J. Appln. Physiol., 1960, Vol. 15, p. 539) which had the advantage of avoiding the wastage of food presented when using powdered fodder. The rats were accustomed to taking their daily ration over 5 consecutive hours, drinking water being offered ad libitum. The amounts of food ingested were determined individually by weighing the feeding troughs and the consumptions were monitored every hour for 5 hours after the administration of 10 mg/kg of the compound intra-peritoneally. The amounts consumed were expressed in g/100 g of body weight per hour and the averages were compared with those obtained from the control animals by a DUNNET test.

| SMILES | IC50 (Peripheral CCK receptors) [nM] | IC50 (Central CCK receptors) [nM] | reduction of alimentary consumption relative to control animals [1] |
| --- | --- | --- | --- |
| Cc1ccc(C(NC(=O)[C@H](CCC(=O)O)NC(=O)c2cc3ccccc3[nH]2)c2ccc(C)cc2)cc1 [Example 2, (S)-4-[[(1H-indol-2-yl)-carbonyl]-amino]-5-[[bis-(4-methylphenyl)-methyl]-amino]-5-oxo pentanoic acid] | 53 | 700 | 15% |
| O=C(O)CC[C@H](NC(=O)c1cc2ccccc2[nH]1)C(=O)NC(c1ccc(Cl)cc1)c1ccc(Cl)cc1 [Example 4, (S)-5-[[bis-(4-chlorophenyl)-methyl]-amino]-5-oxo-4-[[(1H-indol-2-yl)-carbonyl]-amino]-pentanoic acid] | 96 | 10000 |  |
| COc1ccccc1C(NC(=O)[C@H](CCC(=O)O)NC(=O)c1cc2ccccc2[nH]1)c1ccccc1 (stereo partly drawn) [Example 9, (4S)-4-[[(1H-indol-2-yl)-carbonyl]-amino]-5-[[(2-methoxyphenyl)-benzyl]-amino]-5-oxo pentanoic acid] | 32 | 682 | more than 50% |
| O=C(O)CC[C@H](NC(=O)c1cc2ccccc2[nH]1)C(=O)NC1c2ccccc2CCc2ccccc21 [Example 13, (S)-5-[(10,11-dihydro-dibenzo-[a,d]-cyclohepten-5-yl)-amino]-4-[[(1H-indol-2-yl)-carbonyl]-amino]-5-oxo pentanoic acid] | 1660 | 2660 |  |

— patent US5064853A, “4(2-indolyl)2-amino-pentanedioic acids and cholecyostokinin use thereof” (Roussel Uclaf, priority 1989, dated 1991)
